As a reminder, the melting point is the temperature of the solid-liquid transition. The term pKi denotes the negative decadic logarithm of the Ki, by convention in mol/L.

pKi: −log10 of the molar value. Structures can show the parent of a compound that is named as a salt.

Tested on in the first series: not given
Experiment: not given
Details: not given
The molecule `Cl.Cn1c2c(c3cc(S(=O)(=O)c4cccc(NC5CCCC5)c4)ccc31)C1CCC(C2)N1` (stereo not shown) [Example 48, 2-[(3-N-Cyclopentylamino)phenyl]sulfonyl-5-methyl-5,6,7,8,9,10-hexahydro-7,10-epiminocyclohepta[b]indole hydrochloride] yielded a melting point of 211 to 217 °C.

Turning to `Cl.Cn1c2c(c3cc(S(=O)(=O)c4cccc(-c5ccccc5)c4)ccc31)C1CCC(C2)N1` (stereo not shown) [Example 57, 2-[(3-Phenyl)-phenyl]sulfonyl-5-methyl-5,6,7,8,9,10-hexahydro-7,10-epiminocyclohepta[b]indole hydrochloride], the melting point is 230 to 235 °C (dec.).

The molecule `Cl.Cn1c2c(c3cc(S(=O)(=O)c4ccc(C(F)(F)F)cc4)ccc31)C1CCC(C2)N1` (stereo not shown) [Example 29, 2-(4-Trifluoromethylphenyl)sulfonyl-5-methyl-5,6,7,8,9,10-hexahydro-7,10-epiminocyclohepta[b]indole hydrochloride] displayed a melting point of 200 to 205 °C.

`Cl.Cn1c2c(c3cc(S(=O)(=O)c4ccc(N)cc4)ccc31)C1CCC(C2)N1` (stereo not shown) [Example 53, 2-(4-Aminophenyl)sulfonyl-5-methyl-5,6,7,8,9,10-hexahydro-7,10-epiminocyclohepta[b]indole hydrochloride] gave a melting point of 220 to 225 °C.

`Cl.Cn1c2c(c3cc(S(=O)(=O)c4ccccc4)ccc31)C1CCC(C2)N1` (stereo not shown) [Example 27, 2-Phenylsulfonyl-5-methyl-5,6,7,8,9,10-hexahydro-7,10-epiminocyclohepta[b]indole hydrochloride]: the melting point is 238 to 244 °C (dec.).

`COc1cc(S(=O)(=O)c2ccccc2)cc2c3c(n(C)c12)CC1CCC3N1.Cl` (stereo not shown) [Example 83, 2-Phenylsulfonyl-4-methoxy-5-methyl-5,6,7,8,9,10-hexahydro-7,10-epiminocyclohepta[b]indole hydrochloride] returned a melting point of 175 to 177 °C.

For the molecule `Cc1cc(S(=O)(=O)n2ccc3ccccc32)cc2c3c(n(C)c12)CC1CCC3N1.Cl` (stereo not shown) [Example 79, 2-[1-Indolesulfonyl]-4,5-dimethyl-5,6,7,8,9,10-hexahydro-7,10-epiminocyclohepta[b]indole], the melting point was 225 to 228 °C.

Turning to `Cl.Cn1c2c(c3cc(S(=O)(=O)c4cccc(C#N)c4)ccc31)C1CCC(C2)N1` (stereo not shown) [Example 43, 2-(3-Cyanophenyl)sulfonyl-5-methyl-5,6,7,8,9,10-hexahydro-7,10-epiminocyclohepta[b]indole hydrochloride], the melting point is 211 to 214 °C.

`COc1ccc2c(ccn2S(=O)(=O)c2ccc3c(c2)c2c(n3C)CC3CCC2N3)c1.Cl` (stereo not shown) [Example 66, 2-[1-(5-Methoxy)-indole]sulfonyl-5-methyl-5,6,7,8,9,10-hexahydro-7,10-epiminocyclohepta[b]indole hydrochloride] returned a melting point of 206 to 209 °C.

In turn, `Cl.Cn1c2c(c3cc(S(=O)(=O)c4ccc5ccccc5c4)ccc31)C1CCC(C2)N1` (stereo not shown) [Example 50, 2-(2-Napthyl)sulfonyl-5-methyl-5,6,7,8,9,10-hexahydro-7,10-epiminocyclohepta[b]indole hydrochloride] yielded a melting point of 220 to 222 °C.

Turning to `CC(C)Oc1cc(S(=O)(=O)c2ccccc2)cc2c3c(n(C)c12)CC1CCC3N1.Cl` (stereo not shown) [Example 85, 2-Phenylsulfonyl-4-isopropoxy-5-methyl-5,6,7,8,9,10-hexahydro-7,10-epiminocyclohepta[b]indole hydrochloride], the melting point was 187 to 189 °C.

On to `Cn1c2c(c3cc(S(=O)(=O)c4ccc(CN)cc4)ccc31)C1CCC(C2)N1` (stereo not shown) (as salt: hydrochloride) [Example 33, 2-(4-Aminomethylphenyl)sulfonyl-5-methyl-5,6,7,8,9,10-hexahydro-7,10-epiminocyclohepta[b]indole dihydrochloride], for which the melting point was in the range of 237 to 239 °C.

The molecule `Cc1cccc(S(=O)(=O)c2cc(C)c3c(c2)c2c(n3C)CC3CCC2N3)c1.Cl` (stereo not shown) [Example 74, 2-(3-Methyl-phenyl)sulfonyl-4,5-dimethyl-5,6,7,8,9,10-hexahydro-7,10-epiminocyclohepta[b]indole hydrochloride] showed a melting point of 228 to 230 °C.

Turning to `Cl.Cn1c2c(c3cc(S(=O)(=O)c4ccsc4)ccc31)C1CCC(C2)N1` (stereo not shown) [Example 56, 2-(3-Thienyl)sulfonyl-5-methyl-5,6,7,8,9,10-hexahydro-7,10-epiminocyclohepta[b]indole hydrochloride], the melting point was 208 to 212 °C (dec.).

`CN(C)Cc1ccc(S(=O)(=O)c2ccc3c(c2)c2c(n3C)CC3CCC2N3)cc1` (stereo not shown) (as salt: hydrochloride) [Example 34, 2-[4-(N,N-Dimethylaminomethyl)phenyl]sulfonyl-5-methyl-5,6,7,8,9,10-hexahydro-7,10-epiminocyclohepta[b]indole dihydrochloride]: the melting point lay in the range of 244 to 246 °C.

The target in another series is human 5-HT6 receptor (Homo sapiens (Human), UniProt P50406). The series is described as follows: radioligand binding assay (SPA format), [N-methyl-3H]-LSD. Conditions: human 5HT6 Ki, human 5-HT6 receptor membranes, 10 nM [3H]-LSD.
Chain of human 5-HT6 receptor (P50406 whole entry): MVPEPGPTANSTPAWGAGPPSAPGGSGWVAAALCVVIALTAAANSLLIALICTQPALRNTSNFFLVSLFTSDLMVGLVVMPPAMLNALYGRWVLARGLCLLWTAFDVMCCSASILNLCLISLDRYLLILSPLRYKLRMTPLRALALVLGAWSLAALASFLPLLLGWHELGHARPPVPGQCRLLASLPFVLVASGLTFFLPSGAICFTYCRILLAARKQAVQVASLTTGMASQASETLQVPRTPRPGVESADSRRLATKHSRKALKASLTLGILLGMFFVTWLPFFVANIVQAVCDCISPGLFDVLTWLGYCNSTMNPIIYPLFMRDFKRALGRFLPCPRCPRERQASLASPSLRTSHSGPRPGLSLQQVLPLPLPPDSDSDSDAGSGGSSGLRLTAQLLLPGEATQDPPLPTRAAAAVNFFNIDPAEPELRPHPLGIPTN
`COc1cc(S(=O)(=O)c2cccc(C(F)(F)F)c2)cc2c3c(n(C)c12)CC1CCC3N1` (stereo not shown) [Example 215] had a pKi of 8.74.

Staying with this series, now noted: read-out: human 5HT6 Ki; human 5-HT6 receptor membranes, 10 nM [3H]-LSD.
`Cn1c2c(c3cc(S(=O)(=O)c4cccc5cccnc45)ccc31)C1CCC(C2)N1` (stereo not shown) [Example 113]: the pKi was 7.64.

`COc1cc(S(=O)(=O)n2ccc3ccc(C#N)cc32)cc2c3c(n(C)c12)CC1CCC3N1` (stereo not shown) [Example 242]: the pKi is 8.62.

`Cn1c2c(c3cc(S(=O)(=O)c4ccccc4)cc(OCc4cccnc4)c31)C1CCC(C2)N1` (stereo not shown) [Example 155]: the pKi was 6.89.

Turning to `Cn1c2c(c3cc(S(=O)(=O)c4cnc5[nH]ccc5c4)ccc31)C1CCC(C2)N1` (stereo not shown) [Example 101], the negative logarithm of the Ki (pKi) was 8.54.

Take `CN1C2CCC1c1c(n(C)c3ccc(S(=O)(=O)c4ccc5[nH]ccc5c4)cc13)C2` (stereo not shown) [Example 184]: the pKi is 9.46.

As to `Cn1c2c(c3cc(S(=O)(=O)c4ccccc4Cl)ccc31)C1CCC(C2)N1` (stereo not shown) [Example 115], the negative logarithm of the Ki (pKi) was 8.32.

Consider `COCCn1ccc2cc(S(=O)(=O)c3ccc4c(c3)c3c(n4C)CC4CCC3N4)ccc21` (stereo not shown) [Example 120], for which the pKi is 7.19.

`COc1cc(S(=O)(=O)c2cccc(-n3cccn3)c2)cc2c3c(n(C)c12)CC1CCC3N1` (stereo not shown) [Example 247]: the pKi was 8.82.

On to `Cn1c2c(c3cc(S(=O)(=O)c4cccc5cccnc45)ccc31)C1CCC(C2)N1` (stereo not shown) [Example 170], for which the pKi was 7.77.

For `COc1cc(S(=O)(=O)c2cn(C)c3ccccc23)cc2c3c(n(C)c12)CC1CCC3N1` (stereo not shown) [Example 223], the negative logarithm of the Ki (pKi) was 8.62.

In the case of `Cn1c2c(c3cc(S(=O)(=O)c4ccc(C#N)cc4)ccc31)C1CCC(C2)N1` (stereo not shown) [Example 178], the negative logarithm of the Ki (pKi) is 6.34.

Turning to `Cn1c2c(c3cc(S(=O)(=O)c4ccccc4F)cc(O)c31)C1CCC(C2)N1` (stereo not shown) [Example 211], the pKi is 8.80.

In the case of `Cn1c2c(c3cc(S(=O)(=O)c4ccc5c(ccn5CCO)c4)ccc31)C1CCC(C2)N1` (stereo not shown) [Example 119], the negative logarithm of the Ki (pKi) was 6.64.

For `Cn1c2c(c3cc(S(=O)(=O)c4cccc(OCc5ccccc5)c4)ccc31)C1CCC(C2)N1` (stereo not shown) [Example 121], the pKi is 8.72.

For `Cn1c2c(c3cc(S(=O)(=O)c4csc5ccccc45)cc(F)c31)C1CCC(C2)N1` (stereo not shown) [Example 139], the negative-log Ki (pKi) was 9.33.

`Cn1c2c(c3cc(S(=O)(=O)c4cccc(Cl)c4)ccc31)C1CCC(C2)N1` (stereo not shown) [Example 157]: the pKi is 8.57.

As for `Cn1c2c(c3cc(S(=O)(=O)c4ccccc4)cc(OCc4ccccn4)c31)C1CCC(C2)N1` (stereo not shown) [Example 154], the negative-log Ki (pKi) is 7.10.

For `CCN1C2CCC1c1c(n(C)c3ccc(S(=O)(=O)c4ccc5[nH]ccc5c4)cc13)C2` (stereo not shown) [Example 185], the negative-log Ki (pKi) is 8.82.

On to `COc1cc(S(=O)(=O)c2cccc(F)c2)cc2c3c(n(C)c12)CC1CCC3N1` (stereo not shown) [Example 222], for which the negative-log Ki (pKi) was 9.25.

In the case of `Cn1c2c(c3cc(S(=O)(=O)c4ccc5[nH]ccc5c4)ccc31)C1CCC(C2)N1Cc1ccccc1` (stereo not shown) [Example 137], the pKi is 8.92.

With `Cn1c2c(c3cc(S(=O)(=O)n4cc(F)c5ccccc54)ccc31)C1CCC(C2)N1` (stereo not shown) [Example 129], the pKi is 8.57.

For the molecule `Cn1c2c(c3cc(S(=O)(=O)n4ccc5cc(Cl)ccc54)ccc31)C1CCC(C2)N1` (stereo not shown) [Example 195], the negative logarithm of the Ki (pKi) is 8.34.

On to `Cn1c2c(c3cc(S(=O)(=O)c4ccc5sccc5c4)ccc31)C1CCC(C2)N1` (stereo not shown) [Example 167], for which the pKi was 8.12.

Consider `Cn1c2c(c3cc(S(=O)(=O)n4ccc5ncccc54)ccc31)C1CCC(C2)N1` (stereo not shown) [Example 107], for which the pKi is 7.11.

With `COCCN1C2CCC1c1c(n(C)c3ccc(S(=O)(=O)c4ccc5[nH]ccc5c4)cc13)C2` (stereo not shown) [Example 136], the negative-log Ki (pKi) is 8.85.

Regarding `Cc1cc(S(=O)(=O)c2cn(C)c3ccccc23)cc2c3c(n(C)c12)CC1CCC3N1` (stereo not shown) [Example 140], the negative-log Ki (pKi) is 9.25.

`Cn1c2c(c3cc(S(=O)(=O)c4cccc5cnccc45)ccc31)C1CCC(C2)N1` (stereo not shown) [Example 111]: the pKi is 7.66.

In the case of `CCOc1cc(S(=O)(=O)c2ccccc2)cc2c3c(n(C)c12)CC1CCC3N1` (stereo not shown) [Example 234], the pKi is 8.31.

Take `COc1cc(S(=O)(=O)c2cn(C)c3ccccc23)cc2c3c(n(C)c12)CC1CCC3N1` (stereo not shown) [Example 224]: the pKi was 9.00.

As for `Cn1c2c(c3cc(S(=O)(=O)n4ccc5ccc(C#N)cc54)ccc31)C1CCC(C2)N1` (stereo not shown) [Example 127], the pKi was 8.82.

Regarding `COc1cc(S(=O)(=O)n2cc(C#N)c3ccccc32)cc2c3c(n(C)c12)CC1CCC3N1` (stereo not shown) [Example 149], the pKi was 8.92.

For `Cn1c2c(c3cc(S(=O)(=O)n4ccc5cc(Cl)ccc54)ccc31)C1CCC(C2)N1` (stereo not shown) [Example 196], the negative logarithm of the Ki (pKi) was 8.92.

The same series, now with this note: read-out: human 5HT6 Ki; human 5-HT6 receptor membranes, 10 nM [3H]-LSD; hydrochloride.
As for `Cn1c2c(c3cc(S(=O)(=O)c4cccc(Cl)c4)ccc31)C1CCC(C2)N1` (stereo not shown) [Example 36, 2-(3-Chlorophenyl)sulfonyl-5-methyl-5,6,7,8,9,10-hexahydro-7,10-epiminocyclohepta[b]indole hydrochloride], the negative-log Ki (pKi) was 8.74.

These data come from US8575186B2, “Epiminocycloalkyl[b] indole derivatives as serotonin sub-type 6 (5-HT6) modulators and uses thereof” (Albany Molecular Research, Inc., priority 2009, dated 2013).
